Laboratory results from patent US12643910B2, “Substituted pyrazolo[3,4-b]pyridines as ectonucleotide pyrophosphatase/phosphodiesterase 1 (ENPP1) modulators” (SANFORD BURNHAM PREBYS MEDICAL DISCOVERY INSTITUTE, priority 2019, dated 2026).

target: T1, human ENPP1 (Homo sapiens, UniProt P22413); assay: ENPP1 assay with ATP substrate (Transcreener AMP2/GMP2 TR-FRET); assay type: biochemical; conditions: 1 hour at room temperature
T1 construct: made in house
T1 sequence (P22413 1-925): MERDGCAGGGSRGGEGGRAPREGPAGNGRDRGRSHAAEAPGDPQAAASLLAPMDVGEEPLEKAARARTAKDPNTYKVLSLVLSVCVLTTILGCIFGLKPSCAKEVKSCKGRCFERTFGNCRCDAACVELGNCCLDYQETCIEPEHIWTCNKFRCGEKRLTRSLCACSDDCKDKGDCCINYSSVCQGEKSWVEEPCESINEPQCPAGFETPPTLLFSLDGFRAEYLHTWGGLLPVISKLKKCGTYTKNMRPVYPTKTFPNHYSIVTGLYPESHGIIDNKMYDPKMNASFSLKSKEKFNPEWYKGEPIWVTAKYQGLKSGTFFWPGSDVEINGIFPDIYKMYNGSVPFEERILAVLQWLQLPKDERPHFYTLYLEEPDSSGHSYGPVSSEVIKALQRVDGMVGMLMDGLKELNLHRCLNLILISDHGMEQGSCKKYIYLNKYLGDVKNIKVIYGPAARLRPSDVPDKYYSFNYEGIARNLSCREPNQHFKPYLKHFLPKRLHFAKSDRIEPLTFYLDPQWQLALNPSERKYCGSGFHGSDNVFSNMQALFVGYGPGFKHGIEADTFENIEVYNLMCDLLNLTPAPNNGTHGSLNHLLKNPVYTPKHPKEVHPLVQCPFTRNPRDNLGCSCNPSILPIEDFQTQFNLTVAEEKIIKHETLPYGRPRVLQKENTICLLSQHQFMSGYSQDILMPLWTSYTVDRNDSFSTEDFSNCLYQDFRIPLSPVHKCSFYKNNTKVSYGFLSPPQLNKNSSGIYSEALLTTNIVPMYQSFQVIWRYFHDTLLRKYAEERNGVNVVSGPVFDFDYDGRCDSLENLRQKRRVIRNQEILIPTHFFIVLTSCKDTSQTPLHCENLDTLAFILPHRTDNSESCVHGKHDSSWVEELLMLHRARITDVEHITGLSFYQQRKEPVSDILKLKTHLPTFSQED
Text: Example B1: ENPP1 Assay with ATP Substrate
Ectonucleotide pyrophosphatase/phosphodiesterase 1 (ENPP1) hydrolyzes ATP, breaking it down into 5′-AMP and pyrophosphate. The 5′-AMP formed from the reaction is detected by Transcreener® AMP2/GMP2 TR-FRET Assay (Bellbrook), containing AMP-tracer (HiLyte 647) and anti-AMP Terbium (Tb) donor. 5′-AMP generated in the reaction competes with AMP-tracer for binding with Anti-AMP Tb donor, and decreases TR-FRET signal.
Different concentrations of ENPP1 inhibitors are added to dry assay plate, followed by 2 μl 300 nM ATP. The reaction is initiated with the addition of 2 μl 8.5 μM human ENPP1 (generated by SBP Protein group). The assay reaction mixture contains a buffer of 50 mM Tris, pH 7.5, 1 mM TCEP, 2 mM MgCl2, 0.005% Tween 20, and 1% DMSO. The reaction is stopped after 1 hour at room temperature by adding 2 μL of 2 nM AMP-tracer and 2 μl of 2 nM Anti-AMP Tb donor in the 50 mM Tris, pH 7.5, buffer containing 20 mM EDTA and 0.1% Prionex. After 2 hour additional incubation at room temperature, the generated signal is measured using BMG Lab PHERASTAR instrument. 100% activity control samples (containing enzyme, substrate, buffer: MAX) and no enzyme control samples (containing substrate and buffer: MIN) are utilized to calculate percent inhibition (%) for each compound concentration well (COMPOUND) as follows.
The IC50 values are determined by fitting the inhibition curves with 2-parameter variable slope model in Graphpad Prism software using percent inhibition vs compound concentration data: […]

SMILES | IC50 [µM]
Cc1csc2c(N3CCC(NC(=O)C4CC4c4ccccc4)CC3)ncnc12 (centres unmarked) [Example 3.79, N-(1-(7-Methylthieno[3,2-d]pyrimidin-4-yl)piperidin-4-yl)-2-phenylcyclopropanecarboxamide] | 1 to 20
COc1nc(N2CCC(NCCCc3ccncc3)CC2)c2scc(C)c2n1 [Example 3.66, 1-(2-Methoxy-7-methylthieno[3,2-d]pyrimidin-4-yl)-N-(3-(pyridin-4-yl)propyl)piperidin-4-amine] | 1 to 20
CN(c1nc(-c2ccccn2)nc2scc(-c3ccccc3)c12)C1CCCC1 [Example 1.36, Cyclopentyl-methyl-(5-phenyl-2-pyridin-2-yl-thieno[2,3-d]pyrimidin-4-yl)-amine] | > 20
Cn1ncc2c(NCc3ccncc3)nc(-c3ccccn3)nc21 [Example 2.17, 1-Methyl-6-(pyridin-2-yl)-N-(pyridin-4-ylmethyl)-1H-pyrazolo[3,4-d]pyrimidin-4-amine] | 1 to 20
c1ccc(-c2csc3nc(-c4ccccn4)nc(NCc4ccco4)c23)cc1 [Example 1.35, Furan-2-ylmethyl-(5-phenyl-2-pyridin-2-yl-thieno[2,3-d]pyrimidin-4-yl)-amine] | 1 to 20
Cc1ccncc1CCCNC1CCN(c2nc(NCCO)nc3c(C)csc23)CC1 [Example 3.71, 2-((7-Methyl-4-(4-((3-(4-methylpyridin-3-yl)propyl)amino)piperidin-1-yl)thieno[3,2-d]pyrimidin-2-yl)amino)ethanol] | 0.1 to 1
COc1ccc(CNc2nc(-c3ccccn3)nc3c2cnn3C)cc1 [Example 2.11, N-(4-Methoxybenzyl)-1-methyl-6-(pyridin-2-yl)-1H-pyrazolo[3,4-d]pyrimidin-4-amine] | > 20
Cn1ncc2c(NCc3ccco3)nc(-c3ccccn3)nc21 [Example 2.23, N-(Furan-2-ylmethyl)-1-methyl-6-(pyridin-2-yl)-1H-pyrazolo[3,4-d]pyrimidin-4-amine] | > 20
Cc1csc2c(N3CCC(NCC4CC4c4ccncc4)CC3)nc(Cl)nc12 (centres unmarked) [Example 3.80, 1-(2-Chloro-7-methylthieno[3,2-d]pyrimidin-4-yl)-N-((2-(pyridin-4-yl)cyclopropyl)methyl)piperidin-4-amine] | 1 to 20
Cc1csc2c(N3CCC(NC/C=C/c4ccncc4)CC3)ncnc12 [Example 3.76, (E)-1-(7-methylthieno[3,2-d]pyrimidin-4-yl)-N-(3-(pyridin-4-yl)allyl)piperidin-4-amine] | 0.1 to 1
Cn1ncc2c(NCc3ccc(Cl)cc3)nc(-c3ccccn3)nc21 [Example 2.13, N-(4-Chlorobenzyl)-1-methyl-6-(pyridin-2-yl)-1H-pyrazolo[3,4-d]pyrimidin-4-amine] | > 20
O=C(CCc1ccc(F)cc1)NC1CCN(c2ncnc3c(Cl)csc23)CC1 [Example 3.64, N-(1-(7-Chlorothieno[3,2-d]pyrimidin-4-yl)piperidin-4-yl)-3-(4-fluorophenyl)propanamide] | 1 to 20
Cn1ncc2c(NCc3cccc(F)c3)nc(-c3ccccn3)nc21 [Example 2.12, N-(3-Fluorobenzyl)-1-methyl-6-(pyridin-2-yl)-1H-pyrazolo[3,4-d]pyrimidin-4-amine] | > 20
Cn1ncc2c(NCc3cccs3)nc(-c3ccccn3)nc21 [Example 2.21, 1-Methyl-6-(pyridin-2-yl)-N-(thiophen-2-ylmethyl)-1H-pyrazolo[3,4-d]pyrimidin-4-amine] | > 20
Cn1ncc2c(NCc3ccccc3)nc(-c3ccccn3)nc21 [Example 2.9, N-Benzyl-1-methyl-6-(pyridin-2-yl)-1H-pyrazolo[3,4-d]pyrimidin-4-amine] | > 20
Cc1ccncc1CCCNC1CCN(c2ncnc3ccsc23)CC1 [Example 3.63, N-(3-(4-Methylpyridin-3-yl)propyl)-1-(thieno[3,2-d]pyrimidin-4-yl)piperidin-4-amine] | 1 to 20
NS(=O)(=O)c1cccc(CNc2nc(-c3ccccn3)nc3scc(-c4ccccc4)c23)c1 [Example 1.12, 3-[(5-Phenyl-2-pyridin-2-yl-thieno[2,3-d]pyrimidin-4-ylamino)-methyl]-benzenesulfonamide] | 1 to 20
